Data as given in patent US20260200942A1, “PARP7 INHIBITORS AND THEIR APPLICATIONS” (CHONGQING PHARSCIN INNOBIO CO., LTD., priority 2023, published 2026).

Key:
[1] = Liver microsomal stability study, human; type: in vitro ADME; settings: Human liver microsomes
Procedure: (§1) The above compounds were diluted to a 1.5 μM intermediate working solution with 0.1 M potassium phosphate buffer containing 0.75 mg/mL liver microsomes, and then 30 μL of the intermediate working solution was dispensed into reaction plates for different time points (0, 5, 15, 30, 45, 60 min). 150 μL of methanol solution containing internal standard was added to the 0 min plate wells. For the other time points (5, 15, 30, 45, 60 min), the sample plates were pre-incubated at 37° C. for 5 min, after which the reaction was initiated with 15 μL of 6 mM NADPH solution and timing was started. 15 μL of 6 mM NADPH solution was added to the 0 min samples to balance the system. At 5 min, 15 min, 30 min, 45 min, and 60 min, respectively, 150 μL of methanol solution containing internal standard was added to the reaction wells to terminate the reaction. After the reaction was complete, the plates were shaken on a shaker at 600 rpm for 10 min, then centrifuged at 4000 rpm for 15 min. 80 μL of supernatant from each well was transferred to a 96-well sample plate containing 150 μL of ultrapure water, mixed, and then analyzed by LC/MS to calculate T1/2.

[2] = Liver microsomal stability study, mouse; type: in vitro ADME; settings: Mouse liver microsomes
Procedure: as §1

[3] = Liver microsomal stability study, rat; type: in vitro ADME; settings: Rat liver microsomes
Procedure: as §1

[4] = target: T1, PARP7 (Homo sapiens, UniProt Q7Z3E1); assay: PARP7 inhibitory activity assay (histone-coated 384-well plate, chemiluminescence); type: biochemical
T1 construct: purchased BPS 80527
T1 sequence (Q7Z3E1 1-657): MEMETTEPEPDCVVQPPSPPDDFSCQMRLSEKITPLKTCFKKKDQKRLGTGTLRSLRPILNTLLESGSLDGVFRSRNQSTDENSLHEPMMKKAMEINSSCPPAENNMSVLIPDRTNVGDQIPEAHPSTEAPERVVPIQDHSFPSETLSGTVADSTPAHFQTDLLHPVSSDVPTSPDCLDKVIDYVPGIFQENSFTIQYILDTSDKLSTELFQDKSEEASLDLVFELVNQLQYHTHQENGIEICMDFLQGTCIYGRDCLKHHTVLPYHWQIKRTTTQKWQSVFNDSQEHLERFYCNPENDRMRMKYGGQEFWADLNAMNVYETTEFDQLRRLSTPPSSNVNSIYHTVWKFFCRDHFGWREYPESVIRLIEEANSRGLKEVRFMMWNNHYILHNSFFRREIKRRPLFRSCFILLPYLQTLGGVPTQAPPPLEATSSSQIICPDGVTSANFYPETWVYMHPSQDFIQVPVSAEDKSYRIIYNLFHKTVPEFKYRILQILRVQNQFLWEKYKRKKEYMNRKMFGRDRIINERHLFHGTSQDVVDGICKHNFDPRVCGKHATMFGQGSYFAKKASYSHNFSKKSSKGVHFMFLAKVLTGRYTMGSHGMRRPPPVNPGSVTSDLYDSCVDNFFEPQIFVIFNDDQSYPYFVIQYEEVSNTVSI
Excerpt: Inhibition rate (%) calculation formula: […]

[5] = Mouse pharmacokinetic study; type: in vivo; settings: BALB/c mice; for AUC(0-t) / Cmax / Tmax / half-life: female, mouse, plasma
Excerpt: • (1) Study design: Female healthy Balb/c mice (specific pathogen-free (SPF) grade) were used as test animals, divided into 2 dose groups with 3 mice in each group, for single intravenous injection and single oral gavage administration, respectively. The vehicle formulations were […] (DMSO)+10% Solutol+85% Saline and 0.5% methylcellulose (MC), respectively. • (2) Plasma sample collection and processing: Blood was collected from the orbital venous plexus of the mice. After intravenous (IV) bolus administration, samples were collected at 0.083 h, 0.25 h, 0.5 h, 1 h, 2 h, 4 h, 8 h, and 24 h. After oral (PO) administration, samples were collected at 0.25 h, 0.5 h, 1 h, 2 h, 4 h, 6 h, 8 h, and 24 h. An appropriate volume of whole blood samples was collected with EDTA-K2 anticoagulation, placed on wet ice after collection, and plasma was separated by centrifugation within 30 min (centrifugation conditions: 4000 rpm, 10 minutes, 2-8° C.). The collected plasma samples were stored in a −70° C. freezer before analysis. After analysis, the remaining plasma samples continued to be stored in a −70° C. freezer. • (3) Analytical batch processing and pharmacokinetic parameter calculation: The concentration of the test substance in the plasma samples was determined. The accuracy of quality control samples was evaluated concurrently with the analysis of the samples, with the requirement that more than 66.7% of the quality control samples have an accuracy between 80-120%. Using the plasma concentration data at different time points, pharmacokinetic parameters such as C0 (IV), Area Under the Curve (AUC)(0-t), T1/2, Cmax, Tmax, and Mean Residence Time (MRT) were calculated using WinNonlin.

[6] = target: T2, PARP2 (Homo sapiens, UniProt Q9UGN5); assay: PARP2 inhibitory activity assay (BPS PARP2 Chemiluminescent Activity Assay Kit); type: biochemical
T2 construct: purchased BPS Bioscience
T2 sequence (Q9UGN5 whole entry): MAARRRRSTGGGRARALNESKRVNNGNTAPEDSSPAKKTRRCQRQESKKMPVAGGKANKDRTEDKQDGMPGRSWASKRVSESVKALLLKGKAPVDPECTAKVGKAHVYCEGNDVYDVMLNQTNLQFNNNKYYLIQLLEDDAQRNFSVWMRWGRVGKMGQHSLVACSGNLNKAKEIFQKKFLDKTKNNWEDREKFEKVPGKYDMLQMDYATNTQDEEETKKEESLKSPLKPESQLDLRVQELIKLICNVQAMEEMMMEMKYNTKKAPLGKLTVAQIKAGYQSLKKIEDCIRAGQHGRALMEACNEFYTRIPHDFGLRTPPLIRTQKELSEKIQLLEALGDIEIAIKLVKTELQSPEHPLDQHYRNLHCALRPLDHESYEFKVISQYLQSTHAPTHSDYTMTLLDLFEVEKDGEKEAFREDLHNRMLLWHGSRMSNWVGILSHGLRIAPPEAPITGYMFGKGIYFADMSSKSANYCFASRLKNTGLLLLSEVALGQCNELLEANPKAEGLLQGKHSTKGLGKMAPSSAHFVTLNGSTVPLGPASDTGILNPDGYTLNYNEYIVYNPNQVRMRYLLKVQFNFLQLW
Excerpt: The PARP2 enzyme activity assay method used in the present disclosure employs reagents from the PARP2 Chemiluminescent Activity Assay Kit from BPS Bioscience, USA. […] The test results are shown in Table 1. /” indicates not tested.

| Compound | half-life at 1 µM [1] [h] | half-life at 1 µM [2] [h] | half-life at 1 µM [3] [h] | IC50 [4] [nM] | F ([5]; PO, 10 mg/kg, 0.5% MC) [%] | AUC(0-t) ([5]; IV, 1 mg/kg) [ng·h/mL] | Cmax ([5]; IV, 1 mg/kg) [ng/mL] | Tmax ([5]; IV, 1 mg/kg) [h] | half-life ([5]; IV, 1 mg/kg) [h] | AUC(0-t) ([5]; PO, 10 mg/kg, 0.5% MC) [ng·h/mL] | Cmax ([5]; PO, 10 mg/kg, 0.5% MC) [ng/mL] | Tmax ([5]; PO, 10 mg/kg, 0.5% MC) [h] | half-life ([5]; PO, 10 mg/kg, 0.5% MC) [h] | IC50 [6] [nM] |
| --- | --- | --- | --- | --- | --- | --- | --- | --- | --- | --- | --- | --- | --- | --- |
| O=c1[nH]nc(CN[C@H]2C[C@H](C(=O)N3C4CCC3CN(c3ncc(C(F)(F)F)cn3)C4)C2)cc1C(F)(F)F [Embodiment 3] | > 1 | > 1 | > 1 | 10 to 100 |  |  |  |  |  |  |  |  |  |  |
| O=c1[nH]cc(CN[C@H]2C[C@H](C(=O)N3C4CCC3CN(c3ncc(C(F)(F)F)cn3)C4)C2)cc1C(F)(F)F [Embodiment 4] | 0.5 to 1 | > 1 | > 1 | 10 to 100 |  |  |  |  |  |  |  |  |  |  |
| O=C(C1CN(Cc2cc(C(F)(F)F)c(=O)[nH]n2)C1)N1CCN(c2ncc(C(F)(F)F)cn2)CC1 [Embodiment 5, 4-(trifluoromethyl)-6-((3-(4-(5-(trifluoromethyl)pyrimidin-2-yl)piperazine-1-carbonyl)azetidin-1-yl)methyl)pyridazin-3(2H)-one] | > 1 | > 1 | > 1 | 10 to 100 | 66.00 | 7900 | 4210 | 0.08 | 1.28 | 52100 | 22000 | 0.33 | 0.98 |  |
| O=c1[nH]nc(CN[C@H]2C[C@H](C(=O)N3CCN(c4ncc(C(F)(F)F)cn4)CC3)C2)cc1C(F)(F)F [Embodiment 12] | > 1 | > 1 | > 1 | 10 to 100 | 59.45 | 1790 | 1200 | 0.08 | 0.89 | 10700 | 7060 | 0.25 | 0.81 |  |
| O=c1[nH]cc(CN[C@H]2C[C@H](C(=O)N3CCN(c4ncc(C(F)(F)F)cn4)CC3)C2)cc1C(F)(F)F [Embodiment 13] | 0.5 to 1 | > 1 | > 1 | 10 to 100 |  |  |  |  |  |  |  |  |  |  |
| O=C(C1CN(Cc2c[nH]c(=O)c(C(F)(F)F)c2)C1)N1CCN(c2ncc(C(F)(F)F)cn2)CC1 [Embodiment 14] | > 1 | > 1 | > 1 | 10 to 100 |  |  |  |  |  |  |  |  |  |  |
| CC(=O)Nc1cc(C(F)(F)F)cnc1N1CCN(C(=O)[C@H]2C[C@H](NC(C)(C)c3cc(C(F)(F)F)c(=O)[nH]n3)C2)CC1 [Embodiment 61, N-(2-(4-((1R,3R)-3-((2-(6-oxo-5-(trifluoromethyl)-1,6-dihydropyridazin-3-yl)propan-2-yl)amino)cyclobutane-1-carbonyl)piperazin-1-yl)-5-(trifluoromethyl)pyridin-3-yl)acetamide] | > 1 | > 1 | > 1 | < 10 |  |  |  |  |  |  |  |  |  | 100 to 1000 |
| CC(=O)Nc1cc(C(F)(F)F)cnc1N1CCN(C(=O)[C@H]2C[C@H](NCc3cc(C(F)(F)F)c(=O)[nH]n3)C2)CC1 [Embodiment 63, N-(2-(4-((1R,3R)-3-(((6-oxo-5-(trifluoromethyl)-1,6-dihydropyridazin-3-yl)methyl)amino)cyclobutane-1-carbonyl)piperazin-1-yl)-5-(trifluoromethyl)pyridin-3-yl)acetamide] | > 1 | > 1 | > 1 | < 10 |  |  |  |  |  |  |  |  |  | 100 to 1000 |
